Our source for the IC50 values is US20230212116A1, “SARS-COV-2 MAIN PROTEASE INHIBITORS” (TEXAS A&M UNIVERSITY SYSTEM, priority 2020, published 2023).

Bounds are passed on as bounds.

The first test has as its target SARS-CoV-2 M^Pro (Severe acute respiratory syndrome coronavirus 2, UniProt P0DTD1). Put plainly: biochemical. It counts as biochemical.
Conditions: not given
Compound `CC(C)C[C@H](NC(=O)OCc1ccccc1)C(=O)NN(CCC(N)=O)C(=O)OCC(F)(F)F` [MPI46, 2,2,2-trifluoroethyl 1-(3-amino-3-oxopropyl)-2-(((benzyloxy)carbonyl)-L-leucyl)hydrazine-1-carboxylate] returned an IC50 above 10000 nM.

On to `C=CC(=O)N(CCC(N)=O)NC(=O)[C@H](CC(C)C)NC(=O)[C@@H](NC(=O)OCc1ccccc1)[C@@H](C)OC(C)(C)C` [MPI50, benzyl ((2S,3R)-1-(((S)-1-(2-acryloyl-2-(3-amino-3-oxopropyl)hydrazineyl)-4-methyl-1-oxopentan-2-yl)amino)-3-(tert-butoxy)-1-oxobutan-2-yl)carbamate], for which the IC50 stood at 109 nM.

Staying with this test, now noted: read-out: Enzymatic IC50.
Turning to `C=CC(=O)N(Cc1cc(=O)[nH]c(=O)[nH]1)NC(=O)[C@H](CC(C)C)NC(=O)[C@@H](NC(=O)OCc1ccccc1)C(C)C` [MPI35, benzyl ((S)-1-(((S)-1-(2-acryloyl-2-((2,6-dioxo-1,2,3,6-tetrahydropyrimidin-4-yl)methyl)hydrazineyl)-4-methyl-1-oxopentan-2-yl)amino)-3-methyl-1-oxobutan-2-yl)carbamate], the IC50 was 4280 ± 278 nM. Same read-out and setting: as for `CC(C)(C)NC(=O)N[C@H](C(=O)N1C[C@H]2[C@@H]([C@H]1C(=O)N[C@@H](C[C@@H]1CCNC1=O)C(=O)C(=O)NCc1ccccc1)C2(C)C)C(C)(C)C` [MPI63, (1R,2S,5S)-N-((S)-4-(benzylamino)-3,4-dioxo-1-((S)-2-oxopyrrolidin-3-yl)butan-2-yl)-3-((S)-2-(3-(tert-butyl)ureido)-3,3-dimethylbutanoyl)-6,6-dimethyl-3-azabicyclo[3.1.0]hexane-2-carboxamide], the figure is 103 ± 1.5 nM; as for `C=CC(=O)N(CCC(N)=O)NC(=O)[C@H](CC(C)C)NC(=O)[C@@H](NC(=O)OCc1ccccc1)C(C)C` [MPI51, benzyl ((S)-1-(((S)-1-(2-acryloyl-2-(3-amino-3-oxopropyl)hydrazineyl)-4-methyl-1-oxopentan-2-yl)amino)-3-methyl-1-oxobutan-2-yl)carbamate], 36 nM. The same measure, in the same setting: in the case of `CC(C)C[C@H](NC(=O)OCc1ccccc1)C(=O)NN(CCC(N)=O)C(=O)CCl` [MPI37, benzyl (S)-(1-(2-(3-amino-3-oxopropyl)-2-(2-chloroacetyl)hydrazineyl)-4-methyl-1-oxopentan-2-yl)carbamate] it was 64 nM; in that of `CC(C)C[C@H](NC(=O)[C@@H](NC(=O)OCc1ccccc1)C(C)C)C(=O)N[C@@H](C[C@@H]1CCNC1=O)C(O)C#N` (stereo partly drawn) [MPI66, benzyl ((2S)-1-(((2S)-1-(((2S)-1-cyano-1-hydroxy-3-((S)-2-oxopyrrolidin-3-yl)propan-2-yl)amino)-4-methyl-1-oxopentan-2-yl)amino)-3-methyl-1-oxobutan-2-yl)carbamate], 18.8 ± 0.8 nM. In the case of `C=CC(=O)N(C[C@@H]1CCC(=O)N1)NC(=O)[C@@H]1[C@@H]2[C@H](CN1C(=O)[C@@H](NC(=O)NC(C)(C)C)[C@@H](C)OC(C)(C)C)C2(C)C` [MPI69, 1-((2S,3R)-1-((1R,2S,5S)-2-(2-acryloyl-2-(((S)-5-oxopyrrolidin-2-yl)methyl)hydrazine-1-carbonyl)-6,6-dimethyl-3-azabicyclo[3.1.0]hexan-3-yl)-3-(tert-butoxy)-1-oxobutan-2-yl)-3-(tert-butyl)urea], the half-inhibitory concentration (IC50) was above 2000 nM. On the same count and under the same terms, as for `C=C(Cc1ccccc1)C(=O)N(CCC(N)=O)NC(=O)[C@H](CC(C)C)NC(=O)OCc1ccccc1` [MPI42, benzyl (S)-(1-(2-(3-amino-3-oxopropyl)-2-(2-benzylacryloyl)hydrazineyl)-4-methyl-1-oxopentan-2-yl)carbamate], the figure is above 10000 nM. The same measure, in the same setting: in the case of `C[C@@H](OC(C)(C)C)[C@H](NC(=O)OCc1ccccc1)C(=O)N[C@@H](CC1CCCCC1)C(=O)NN(CCC(N)=O)C(=O)CCl` [MPI53, benzyl ((2S,3R)-1-(((S)-1-(2-(3-amino-3-oxopropyl)-2-(2-chloroacetyl)hydrazineyl)-3-cyclohexyl-1-oxopropan-2-yl)amino)-3-(tert-butoxy)-1-oxobutan-2-yl)carbamate] it was 189 nM.
